Assays:
A549 [1] = test: Cytotoxicity against human A549 cells after 24 to 72 hrs by MTT assay; type: functional, cell-based
Mus musculus [2] = test: Toxicity in BALB/cA nude mouse xenografted with human A549 cells assessed as mortality at 9 mg/kg, iv […]; type: organism-based; set-up: dose 9 mg/kg, route intravenous; details: in vivo
A549 [3] = test: Ratio of navelbine IC50 to compound IC50 for human A549 cells; type: functional
Mus musculus [4] = test: Toxicity in BALB/cA nude mouse xenografted with human A549 cells assessed as change in body weight at 9 mg/kg, iv once every seven days for three doses (reference value: 27.61 g); details: in vivo
A549 [5] = test: Antitumor activity against human A549 cells xenografted in BALB/cA nude mouse assessed as growth inhibition at 9 mg/kg, iv once every seven days for three doses relative to control; details: read-out: GI

Structure (SMILES)	IC50 (A549 [1])	other results
CCCCC(=O)NC[C@@]1(O)[C@H](OC(C)=O)[C@]2(CC)C=CCN3CC[C@@]4(c5cc([C@@]6(C(=O)OC)C[C@@H]7C=C(CC)CN(Cc8c6[nH]c6ccccc86)C7)c(OC)cc5N(C)[C@@H]14)[C@@H]32	22.1 nM	–
CCC1=C[C@@H]2CN(C1)Cc1c([nH]c3ccccc13)[C@@](C(=O)OC)(c1cc3c(cc1OC)N(C)[C@H]1[C@@](O)(CNC(=O)C(C)C)[C@H](OC(C)=O)[C@]4(CC)C=CCN5CC[C@]31[C@@H]54)C2	11.4 nM	–
CCC1=C[C@@H]2CN(C1)Cc1c([nH]c3ccccc13)[C@@](C(=O)OC)(c1cc3c(cc1OC)N(C)[C@H]1[C@@](O)(CNC(=O)CC(C)C)[C@H](OC(C)=O)[C@]4(CC)C=CCN5CC[C@]31[C@@H]54)C2	22 nM	–
CCC1=C[C@@H]2CN(C1)Cc1c([nH]c3ccccc13)[C@@](C(=O)OC)(c1cc3c(cc1OC)N(C)[C@H]1[C@@](O)(CNC(=O)C(C)(C)C)[C@H](OC(C)=O)[C@]4(CC)C=CCN5CC[C@]31[C@@H]54)C2	37 nM	–
CCC1=C[C@@H]2CN(C1)Cc1c([nH]c3ccccc13)[C@@](C(=O)OC)(c1cc3c(cc1OC)N(C)[C@H]1[C@@](O)(CNC(=O)C4CC4)[C@H](OC(C)=O)[C@]4(CC)C=CCN5CC[C@]31[C@@H]54)C2.O=C(O)C(O)C(O)C(=O)O	3 nM	Activity (Mus musculus [2]): Non-toxic; Ratio IC50 (A549 [3]): 3; Activity (Mus musculus [4]): 26.53 g; inhibition in vivo at 9 mg/kg (A549 [5]): 18%
CCC(=O)NC[C@@]1(O)[C@H](OC(=O)CC)[C@]2(CC)C=CCN3CC[C@@]4(c5cc([C@@]6(C(=O)OC)C[C@@H]7C=C(CC)CN(Cc8c6[nH]c6ccccc86)C7)c(OC)cc5N(C)[C@@H]14)[C@@H]32	12 nM	–
CCC1=C[C@@H]2CN(C1)Cc1c([nH]c3ccccc13)[C@@](C(=O)OC)(c1cc3c(cc1OC)N(C)[C@H]1[C@@](O)(CNC(=O)Cc4ccccc4)[C@H](OC(C)=O)[C@]4(CC)C=CCN5CC[C@]31[C@@H]54)C2	16.2 nM	–
CCC1=C[C@@H]2CN(C1)Cc1c([nH]c3ccccc13)[C@@](C(=O)OC)(c1cc3c(cc1OC)N(C)[C@H]1[C@@](O)(CNC(=O)c4ccccc4)[C@H](OC(C)=O)[C@]4(CC)C=CCN5CC[C@]31[C@@H]54)C2.O=C(O)C(O)C(O)C(=O)O	5 nM	Activity (Mus musculus [2]): Non-toxic; Activity (Mus musculus [4]): 24.6 g; inhibition in vivo at 9 mg/kg (A549 [5]): 43.5%
CCC1=C[C@@H]2CN(C1)Cc1c([nH]c3ccccc13)[C@@](C(=O)OC)(c1cc3c(cc1OC)N(C)[C@H]1[C@@](O)(CNC(=O)c4ccc(C)cc4)[C@H](OC(C)=O)[C@]4(CC)C=CCN5CC[C@]31[C@@H]54)C2	15.3 nM	–
CCC1=C[C@@H]2CN(C1)Cc1c([nH]c3ccccc13)[C@@](C(=O)OC)(c1cc3c(cc1OC)N(C)[C@H]1[C@@](O)(CNC(=O)c4cccc(C)c4)[C@H](OC(C)=O)[C@]4(CC)C=CCN5CC[C@]31[C@@H]54)C2	17.2 nM	–
CCC1=C[C@@H]2CN(C1)Cc1c([nH]c3ccccc13)[C@@](C(=O)OC)(c1cc3c(cc1OC)N(C)[C@H]1[C@@](O)(CNC(=O)c4ccc(F)cc4)[C@H](OC(C)=O)[C@]4(CC)C=CCN5CC[C@]31[C@@H]54)C2	6.6 nM	–
CCC1=C[C@@H]2CN(C1)Cc1c([nH]c3ccccc13)[C@@](C(=O)OC)(c1cc3c(cc1OC)N(C)[C@H]1[C@@](O)(CNC(=O)c4ccccc4F)[C@H](OC(C)=O)[C@]4(CC)C=CCN5CC[C@]31[C@@H]54)C2	7.3 nM	–
CCC1=C[C@@H]2CN(C1)Cc1c([nH]c3ccccc13)[C@@](C(=O)OC)(c1cc3c(cc1OC)N(C)[C@H]1[C@@](O)(CNC(=O)c4c(F)cccc4F)[C@H](OC(C)=O)[C@]4(CC)C=CCN5CC[C@]31[C@@H]54)C2	7.9 nM	–
CCC1=C[C@@H]2CN(C1)Cc1c([nH]c3ccccc13)[C@@](C(=O)OC)(c1cc3c(cc1OC)N(C)[C@H]1[C@@](O)(CNC(=O)c4cccc(OC)c4)[C@H](OC(C)=O)[C@]4(CC)C=CCN5CC[C@]31[C@@H]54)C2	6.3 nM	–
CCC1=C[C@@H]2CN(C1)Cc1c([nH]c3ccccc13)[C@@](C(=O)OC)(c1cc3c(cc1OC)N(C)[C@H]1[C@@](O)(CNC(=O)c4ccc(OC)c(OC)c4)[C@H](OC(C)=O)[C@]4(CC)C=CCN5CC[C@]31[C@@H]54)C2	6.5 nM	–
CCC1=C[C@@H]2CN(C1)Cc1c([nH]c3ccccc13)[C@@](C(=O)OC)(c1cc3c(cc1OC)N(C)[C@H]1[C@@](O)(CNC(=O)c4ccc(Cl)cc4)[C@H](OC(C)=O)[C@]4(CC)C=CCN5CC[C@]31[C@@H]54)C2	25.6 nM	–
CCC1=C[C@@H]2CN(C1)Cc1c([nH]c3ccccc13)[C@@](C(=O)OC)(c1cc3c(cc1OC)N(C)[C@H]1[C@@](O)(CNC(=O)c4ccc(C(F)(F)F)cc4)[C@H](OC(C)=O)[C@]4(CC)C=CCN5CC[C@]31[C@@H]54)C2	20.7 nM	–
CCC1=C[C@@H]2CN(C1)Cc1c([nH]c3ccccc13)[C@@](C(=O)OC)(c1cc3c(cc1OC)N(C)[C@H]1[C@@](O)(CNC(=O)c4ccc([N+](=O)[O-])cc4)[C@H](OC(C)=O)[C@]4(CC)C=CCN5CC[C@]31[C@@H]54)C2	41.1 nM	–
CCC1=C[C@@H]2CN(C1)Cc1c([nH]c3ccccc13)[C@@](C(=O)OC)(c1cc3c(cc1OC)N(C)[C@H]1[C@@](O)(CNC(=O)c4ccco4)[C@H](OC(C)=O)[C@]4(CC)C=CCN5CC[C@]31[C@@H]54)C2.O=C(O)C(O)C(O)C(=O)O	3.2 nM	Activity (Mus musculus [4]): 25.45 g; inhibition in vivo at 9 mg/kg (A549 [5]): 58%
CCC1=C[C@@H]2CN(C1)Cc1c([nH]c3ccccc13)[C@@](C(=O)OC)(c1cc3c(cc1OC)N(C)[C@H]1[C@@](O)(CNC(=O)c4ccncc4)[C@H](OC(C)=O)[C@]4(CC)C=CCN5CC[C@]31[C@@H]54)C2	8.1 nM	–
CCC1=C[C@@H]2CN(C1)Cc1c([nH]c3ccccc13)[C@@](C(=O)OC)(c1cc3c(cc1OC)N(C)[C@H]1[C@@](O)(CNC(C)=O)[C@H](OC(C)=O)[C@]4(CC)C=CCN5CC[C@]31[C@@H]54)C2	24.5 nM	–
CCCC(=O)NC[C@@]1(O)[C@H](OC(C)=O)[C@]2(CC)C=CCN3CC[C@@]4(c5cc([C@@]6(C(=O)OC)C[C@@H]7C=C(CC)CN(Cc8c6[nH]c6ccccc86)C7)c(OC)cc5N(C)[C@@H]14)[C@@H]32	17.3 nM	–
CCC(=O)NC[C@@]1(O)[C@H](OC(C)=O)[C@]2(CC)C=CCN3CC[C@@]4(c5cc([C@@]6(C(=O)OC)C[C@@H]7C=C(CC)CN(Cc8c6[nH]c6ccccc86)C7)c(OC)cc5N(C)[C@@H]14)[C@@H]32	15.6 nM	–
CCC1=C[C@@H]2CN(C1)Cc1c([nH]c3ccccc13)[C@@](C(=O)OC)(c1cc3c(cc1OC)N(C)[C@H]1[C@@](O)(C(=O)OC)[C@H](OC(C)=O)[C@]4(CC)C=CCN5CC[C@]31[C@@H]54)C2 [VINORELBINE]	9 nM	Activity (Mus musculus [2]): Non-toxic; Activity (Mus musculus [4]): 26.22 g; inhibition in vivo at 9 mg/kg (A549 [5]): 55.9%

From ChEMBL document CHEMBL2203286, “Synthesis and structure-activity relationship studies of cytotoxic vinorelbine amide analogues” (Bioorg Med Chem Lett, 2012)
